Patent publication US5177082A, “Huperzines and analogs” (priority 1990, dated 1993)
Where two headings read alike, the source gives them in different places.

What was measured:
pseudocholinesterase = target: T1, pseudocholinesterase (Rattus norvegicus, UniProt Q9JKC1); test: biochemical
T1 construct: 0.1 ml of rat blood serum; from tissue; host or cells: rat blood serum
Protocol: (§1) Red blood cell membranes of rats were used as the source for the true cholinesterase with a substrate concentration of 0.3 mM of S-acetylthiocholine iodide. The source for pseudocholinesterase was 0.1 ml of rat blood serum and the substrate was 0.4 mM S-butyrylthiocholine iodide. The Ellman colorimetric method was used to measure the enzyme activity. The percentage of enzyme activity remaining was plotted against negative logarithm (pI) of the drug concentration and the pI50 (the negative logarithm of the gram molecule concentration of the drug required to inhibit the enzyme activity 50%) was derived.

true cholinesterase = true cholinesterase (Rattus norvegicus, UniProt P37136); test: biochemical; design: Red blood cell membranes of rats; from tissue; host or cells: rat red blood cell membranes
true cholinesterase, sequence (P37136-2 with tags, fused parts or gaps limits assumed): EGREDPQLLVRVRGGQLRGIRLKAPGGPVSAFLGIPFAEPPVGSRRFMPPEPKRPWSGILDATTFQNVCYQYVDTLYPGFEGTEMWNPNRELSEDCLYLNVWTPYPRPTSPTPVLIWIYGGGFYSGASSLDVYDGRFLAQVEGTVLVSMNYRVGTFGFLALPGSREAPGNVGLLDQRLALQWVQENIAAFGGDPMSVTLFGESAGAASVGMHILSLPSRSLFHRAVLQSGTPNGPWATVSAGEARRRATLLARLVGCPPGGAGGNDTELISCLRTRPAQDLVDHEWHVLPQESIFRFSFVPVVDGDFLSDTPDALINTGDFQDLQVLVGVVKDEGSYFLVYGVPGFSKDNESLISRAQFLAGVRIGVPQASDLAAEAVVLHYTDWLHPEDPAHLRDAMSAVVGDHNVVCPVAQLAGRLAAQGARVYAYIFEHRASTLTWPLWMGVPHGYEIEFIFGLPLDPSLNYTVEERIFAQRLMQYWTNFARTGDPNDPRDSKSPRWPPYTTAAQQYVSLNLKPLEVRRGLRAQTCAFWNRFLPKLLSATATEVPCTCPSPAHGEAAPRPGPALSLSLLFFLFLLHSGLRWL
Protocol: as §1

[1] = tested on: In Vitro Rat Nerve/Diaphragm Muscle Contraction; test: In vitro phrenic nerve/diaphragm preparations of rats, enhancement of muscle contraction; conditions: for EC50: read-out: Enhancement of Muscle Contraction Amplitude, 50% Concentration; for Strength of Effect: relative to Huperzine A = 1.00
Protocol: 1. In Vitro Phrenic Nerve/Diaphragm Preparations of Rats.
After the fast decapitation of a rat, the thoracic cavity was opened and the right diaphragm with attached phrenic nerve was removed. After placing it in a Tyrode's solution (37° C. constant temperature), gassed with 95% oxygen+5% CO2, electrical stimulation (1-10 V, 0.5 ms, 1 c/10 s) of the phrenic nerve was used to produce muscle contraction. A transducer was used to record the contraction amplitude on a panel recorder. […].

myasthenia gravis = test: Double blind cross-over comparison of Huperzine A and neostigmine, 69 cases of myasthenia gravis; assay type: in vivo, human
Description: (§2) Patients affected with myasthenia gravis (MG) with typical clinical symptoms which improved after using neostigmine were the subjects for testing and verification. […] The injections were all given in the morning and on the morning prior to the injections anticholinesterase drugs were discontinued. Neither the patients nor the doctors knew which drug was being injected. Later, the symptoms, the duration of the improvements, if any, which were obtained by the drugs and the side effects were recorded.
(1) Comparison of the maintained times of the effects.

patients = test: Clinical side effects in patients with myasthenia gravis; assay type: in vivo, human
Protocol: as §2, with “verification. […] It was generally used for at least ten days and each dosage was 0.4-0.5 mg.” for “verification.”, “recorded. Based on these factors, the relative merits of the two drugs were established.” for “recorded.”

[2] = tested on: Sciatic Nerve/Tibialis Muscle Preparation; test: Anesthetized rat sciatic nerve/tibialis muscle preparation; assay type: in vivo; conditions: for minimal effective dose: Rattus norvegicus, iv, read-out: Lowest Effective Dosage for Enhancing Muscle Contraction
Protocol: (§3) Anesthesized Rat and Rabbit Sciatic Nerve/Tibialis Muscle Preparation
(§4) Anesthesia was produced in rats by ip injections of 30 mg/kg of pentobarbital and in rabbits by iv injections of 1 g/kg of urethane. Electric stimulation of the periphery of the sciatic nerve (5-10 V, 0.5 ms, 1 c/10 s) caused tibialis contraction which was recorded on smoked paper.

[3] = tested on: Sciatic Nerve/Tibialis Muscle Preparation; test: Anesthetized rabbit sciatic nerve/tibialis muscle preparation; assay type: in vivo; conditions: rabbits; for minimal effective dose: Oryctolagus cuniculus, iv, read-out: Lowest Effective Dosage for Enhancing Muscle Contraction
Protocol: as §3, §4

memory functions of rats = test: Memory function of preconditioned rats after 48 hours; assay type: in vivo, rat; conditions: 0.15 mg/kg, after 48 hours
Protocol: To evaluate the impact on the memory function, preconditioned animals going through 5 shock-free runs were used as learned animals. After 48 hours the drug-free (control) animals required 14.4±8.9 shocks to become learned.

Mice = conditions: mouse, in vivo
Rats = conditions: rat, in vivo
in vivo [4] = conditions: mouse, ip
in vivo [5] = conditions: rat, ip
[6] = tested on: learning functions of rats; test: Y maze conditioned reflex test, learning process of rats; conditions: 0.08 mg/kg, iv
Description: Each animal was required to go through 10 successive shock-free runs to be classified as learned.

TA100 = test: Mutation test (Ames) TA100 + S9; conditions: 1500 μg/container
[7] = 0.4 mM S-butyrylthiocholine iodide, read-out: Inhibition of Cholinesterase (pI50), Blood serum (converted)
[8] = 0.3 mM S-acetylthiocholine iodide, read-out: Inhibition of Cholinesterase (pI50), Red Blood Cells (converted)
[9] = in vitro rat phrenic nerve/diaphragm, 37° C.

T1 sequence (Q9JKC1 24-597): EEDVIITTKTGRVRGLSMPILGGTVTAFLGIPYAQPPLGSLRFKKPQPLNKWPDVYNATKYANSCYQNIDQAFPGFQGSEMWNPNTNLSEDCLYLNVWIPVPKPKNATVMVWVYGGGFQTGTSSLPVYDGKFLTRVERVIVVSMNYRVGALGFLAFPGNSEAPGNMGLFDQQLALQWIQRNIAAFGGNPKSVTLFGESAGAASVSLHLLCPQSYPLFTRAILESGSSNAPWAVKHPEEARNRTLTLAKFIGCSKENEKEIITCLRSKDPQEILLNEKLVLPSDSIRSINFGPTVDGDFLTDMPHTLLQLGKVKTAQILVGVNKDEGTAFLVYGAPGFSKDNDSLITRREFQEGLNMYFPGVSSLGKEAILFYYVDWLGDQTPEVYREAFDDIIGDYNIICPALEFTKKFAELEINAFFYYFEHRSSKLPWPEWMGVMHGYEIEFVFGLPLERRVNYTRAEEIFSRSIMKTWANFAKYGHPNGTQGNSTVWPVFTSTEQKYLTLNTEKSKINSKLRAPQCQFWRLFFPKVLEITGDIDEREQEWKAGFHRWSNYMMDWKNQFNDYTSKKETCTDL

Molecule: C/C=C1\[C@H]2C=C(C)C[C@]1(N(C)C)c1ccc(=O)[nH]c1C2 [N-dimethyl huperzine A, (5R, 9R, 11E)-11-ethylidene-5,6,9,10-tetrahydro-7-methyl-5-(dimethylamino)-5,9-methanocycloocta[b]pyridin-2(1H)-one]
- Inhibition of Cholinesterase, Blood serum (concentration found ineffective) (pseudocholinesterase; 0.4 mM S-butyrylthiocholine iodide): 1.2 × 10^-2 M ineffective
- IC50 (true cholinesterase): 158 µM

Molecule: CN(C)C(=O)Oc1cccc([N+](C)(C)C)c1 [Neostigmine, reference compound]
- EC50 ([1]; Rattus norvegicus): 0.272 µM
- Strength of Effect [1]: 1.61
- IC50 (pseudocholinesterase; [7]): 3.55 µM
- action time of neostigmine longer than Huperzine A, % (myasthenia gravis): 8.69%
- action time of neostigmine longer than Huperzine A, cases (myasthenia gravis): 6 cases
- Abdominal pains, % (patients; control group): 7.4%
- Abdominal pains, number of times (patients; control group): 26
- Blurred vision, % (patients; control group): 9.7%
- Blurred vision, number of times (patients; control group): 24
- Dizziness, % (patients; control group): 19.5%
- Dizziness, number of times (patients; control group): 68
- Drooling, % (patients; control group): 1.2%
- Drooling, number of times (patients; control group): 11
- Increase in the number of bowel movements, % (patients; control group): 2.0%
- Increase in the number of bowel movements, number of times (patients; control group): 7
- Muscle bundle quivering, % (patients; control group): 8.3%
- Muscle bundle quivering, number of times (patients; control group): 29
- Myosis, % (patients; control group): 3.4%
- Myosis, number of times (patients; control group): 12
- Nausea, % (patients; control group): 4.3%
- Nausea, number of times (patients; control group): 15
- Perspiring, % (patients; control group): 12.1%
- Perspiring, number of times (patients; control group): 43
- Tinnitus, % (patients; control group): 4.0%
- Tinnitus, number of times (patients; control group): 14
- Vomiting, % (patients; control group): 1.2%
- Vomiting, number of times (patients; control group): 6
- cases with side effects (patients; control patients, 69 cases): 34 cases
- cases with side effects, % (patients; control patients, 69 cases, X^2 =3.58, P>0.05): 49.27%
- perspiring and blurred vision vs Huperzine A (patients; perspiring X^2 =5.5, P<0.01, blurred vision X^2 =12.96, P<0.001): more noticeably than Hyperzine A caused perspiring and blurred vision
- IC50 (true cholinesterase; [8]): 0.224 µM

Molecule: C/C=C1\[C@H]2C=C(C)C[C@]1(N(C)C)c1ccc(=O)n(C)c1C2 [N-trimethyl-huperzine A, (5R, 9R, 11E)-11-ethylidene-5,6,9,10-tetrahydro-1,7-dimethyl-5-(dimethylamino)-5,9-methanocycloocta[b]pyridin-2(1H)-one]
- Inhibition of Cholinesterase, Blood serum (concentration found ineffective) (pseudocholinesterase): 1.1 × 10^-2 M ineffective
- IC50 (true cholinesterase; [8]): 316 µM

Molecule: CNC(=O)Oc1ccc2c(c1)[C@]1(C)CCN(C)[C@@H]1N2C [Physostigmine, reference compound]
- EC50 [1, 9]: 0.245 µM
- Strength of Effect [1]: 1.79
- minimal effective dose ([2]; rats): 0.05 mg/kg
- Strength of Effect ([2]; rats, physostigmine = 1.0): 1.0
- minimal effective dose [3]: 0.12 mg/kg
- effect on electrically stimulated muscle contraction ([3]; iv (Huperzine A 30 μg/kg)): enhanced the rabbit's tibialis muscle contraction amplitude but to a lesser degree than that observed for the rats
- Strength of Effect ([3]; physostigmine = 1.0): 1.0
- shocks required to achieve the learned state (memory) (memory functions of rats): 6.4±3.7 shocks
- IC50 (pseudocholinesterase): 1.12 µM
- Toxic Strength (Mice): 2.25
- Toxic Strength (Rats): 2.08
- LD50 (in vivo [4]): 0.8 mg/kg
- LD50 (in vivo [5]): 2.4 mg/kg
- shocks accepted before achieving the learned state (learning) [6]: 7.9±3.5 shocks

Molecule: CC1=C[C@H]2Cc3[nH]c(=O)ccc3[C@@]3(C1)[C@@H]2CCCN3C [N-methyl huperzine B, (4aR, 5R, 10bR)-1,2,3,4,4a,5,6,10b-octahydro-1,12-dimethyl-5,10b-propeno-1,7-phenanthrolin-8(7H)-one]
- IC50 (pseudocholinesterase; [7]): 316 µM

Molecule: Tubocurarine [reference compound]
- block of electrically induced muscle contraction ([2]; tubocurarine 0.3 mg/kg iv, species not separated (rats/rabbits)): completely blocked the electrically induced muscle contraction

Molecule: CCC1[C@H]2Cc3[nH]c(=O)ccc3[C@@]1(N)CC(C)C2 (stereo partly drawn) [tetrahydro-huperzine A, (5R, 9R)-5-amino-11-ethyl-5,6,7,8,9,10-hexahydro-7-methyl-5,9-methanocycloocta[b]pyridin-2(1H)-one]
- IC50 (pseudocholinesterase; [7]): 50.1 µM
- IC50 (true cholinesterase; [8]): 2.51 µM

Molecule: CCC1[C@H]2C=C(C)C[C@]1(N)c1ccc(=O)[nH]c1C2 (stereo partly drawn) [11,12-dihydro-huperzine A, (5R, 9R)-5-amino-11-ethyl-5,6,9,10-tetrahydro-7-methyl-5,9-methanocycloocta[b]pyridin-2(1H)-one]
- IC50 (pseudocholinesterase; [7]): 12.6 µM
- IC50 (true cholinesterase): 0.631 µM

Molecule: CC1=C[C@H]2Cc3[nH]c(=O)ccc3[C@]3(C1)NCCC[C@H]23 [Huperzine B, (4aR, 5R, 10bR)-1,2,3,4,4a,5,6,10b-octahydro-12-methyl-5,10b-propeno-1,7-phenanthrolin-8(7H)-one]
- EC50 ([1]; Rattus norvegicus): 4.8 µM
- Strength of Effect [1]: 0.09
- IC50 (pseudocholinesterase): 200 µM
- IC50 (true cholinesterase): 0.501 µM

Molecule: O=P1(N(CCCl)CCCl)NCCCO1 (stereo not shown) [Cyclophosphamide]
- reverse mutation colonies, TA100 + S9 (TA100): 566 ± 10

Molecule: COc1ccc2c3c1O[C@H]1C[C@@H](O)C=C[C@@]31CCN(C)C2 [Galanthamine, reference compound]
- EC50 [1, 9]: 4.2 µM
- Strength of Effect [1]: 0.10
- minimal effective dose [2]: 0.5 mg/kg
- Strength of Effect ([2]; rat, in vivo): 1.0
- minimal effective dose [3]: 0.5 mg/kg
- Strength of Effect ([3]; galanthamine = 1.0): 1.0
- Inhibition of Cholinesterase (pI50), Blood serum (pseudocholinesterase): 4.9
- Toxic Strength (Mice): 0.13
- Toxic Strength (Rats): 1.22
- LD50 (in vivo [4]): 13.4 mg/kg
- LD50 (in vivo [5]): 22.9 mg/kg

Molecule: C/C=C1\[C@H]2C=C(C)C[C@]1(NC(C)=O)c1ccc(=O)[nH]c1C2 [N-acetyl huperzine A, (5R, 9R, 11E)-5-(acetylamino)-11-ethylidene-5,6,9,10-tetrahydro-7-methyl-5,9-methanocycloocta[b]pyridin-2(1H)-one]
- Inhibition of Cholinesterase, Blood serum (concentration found ineffective) (pseudocholinesterase): 1.1 × 10^-2 M ineffective
- IC50 (true cholinesterase; [8]): > 3160 µM
